Experimental data: article PMC11823679, “Protamine protects against vancomycin-induced kidney injury” (Antimicrobial Agents and Chemotherapy, 2025)

Columns and labels:
megalin = tested on: megalin; set-up: method as in Hori et al. ([18]); conditions: quartz crystal microbalance analysis, ref Hori et al. ([18]), cited from earlier work
Excerpt: Hori et al. ([18]) performed a study to evaluate the binding of megalin to vancomycin and cisplatin, as well as aminoglycosides and colistin. They utilized quartz crystal microbalance analysis to assess the dir ...

Urinary KIM-1 = Urinary KIM-1 kidney injury in rats given vancomycin and/or protamine; conditions: for Contrast KIM-1: urinary KIM-1, vancomycin 150 mg/kg i.v., protamine sulfate 1.5 mg/kg i.v.
Method: Male Sprague-Dawley rats (n = 19; age 8–10 weeks; 268–304 g; Envigo, Indianapolis, IN, USA) underwent double jugular catheterization ([33]) (Fig. 3A). Surgery was performed under ketamine (100 mg/kg of body weight) and xyalzine (10 mg/kg of body weight) anesthesia with buprenorphine (0.02 mg/kg of body weight) given post-operatively for pain management. Animals were allowed to recover 4 days before the administration of any drug. Animals were housed in metabolic cages starting 1 day prior to day 0 with access to food and water ad libitum for the duration of the study (Fig. 3B).
Animals were divided into three experimental treatment protocols. Using a dedicated jugular vein for dosing, the animals received clinical grade intravenous protamine and/or vancomycin in doses allometrically scaled to humans according to the following protocols: (i) protamine sulfate (1.5 mg/kg of body weight) and vancomycin (150 mg/kg of body weight) (n = 6); (ii) protamine only (1.5 mg/kg of body weight) with saline sham (sham for volume of vancomycin) (n = 7); or (iii) vancomycin only (150 mg/kg of body weight) with saline sham (sham for volume of protamine) (n = 6) ([34][–][36]). Saline sham was given to match the volumes of protamine and vancomycin doses to maintain euvolemia. On day 0, all animals received only iohexol (51.8 mg/day) intravenously to establish baseline GFR measurements. Drugs were administered as described above by treatment protocols to all groups on days 1–4. Infusion times for each of the drugs include (i) protamine sulfate, 5 minutes; (ii) vancomycin and iohexol, 2 minutes; and (iii) saline sham, 5 or 2 minutes depending on what the sham was replacing.
Urine samples were collected daily, and volumes were measured starting from day 0 to day 4. Samples were centrifuged at 500 g for 10 minutes, and the resulting supernatant was aliquoted (1.5 mL) and stored at −80°C for renal biomarker analysis later.
Urinary samples were analyzed for KIM-1 using the Milliplex MAP Rat Kidney Toxicity Magnetic Bead Panel 1 (EMD Millipore Corporation, Charles, MO, USA) according to the manufacturer’s directions and as previously described ([34], [36], [37]). Briefly, neat urine aliquots were mixed with monoclonal antibody-coated magnetic microbeads (Bead Panel 1) and run on a 96-well plate, which also included a standard curve. Biomarker data were acquired, and concentrations were analyzed using Belysa Immunoassay Curve-Fitting Software V1 (MilliporeSigma, Darmstadt, Germany). The amount of urinary KIM-1 excreted over the 24-h collection period was obtained by multiplying the urinary concentration by 24-h urinary volume.
An omnibus test, i.e., joint tests (multi-degree of freedom) of the interaction and main effects, which is similar to the F test in ANOVA, was used initially (STATA 17.0 BE, StataCorp LLC, College Station, TX, USA). Only models with significant interaction at P < 0.05 were selected for post hoc analysis (i.e., identification of the difference between treatment groups and days). Margins were calculated for a full factorial of the variables, i.e., main effects for each variable and interactions. Referent groups were pre-treatment baseline values and protamine alone as a treatment, except where noted. […] LOWESS graphs were produced in R version 4.2.2 using ggplot2. […] All tests were two-tailed; a P < 0.05 was required for statistical significance. Graphs for cellular studies were generated using GraphPad version 9.3.1 and were fit with a log(inhibitor) vs normalized response function after log transformation.

acute kidney injury = conditions: cited from earlier work
Excerpt: Vancomycin is one of the most widely used antibiotics within United States in-patient healthcare systems, accounting for 11.9% of all antibiotic use for inpatient antimicrobials (1,258 out of 10,612) in a 2015 hospital survey ([1]). As a tricyclic glycopeptide, it is primarily indicated for severe Gram-positive bacterial infections, including methicillin-resistant Staphylococcus aureus (MRSA) ([2]). For about 70 years now, vancomycin has remained a first-line antibiotic widely used and studied across people of all ages. Despite its efficacy in the treatment of MRSA infections, one common limit ... || In humans, VAN (creatinine defined) ([41]) occurs between an interquartile range of 6–13 days ([42]), and creatinine is known to lag behind GFR ([43]). Serum creatinine is the most commonly utilized biomarker to classify AKI in patients ([41], [44][–][46]); however, creatinine is non-sensitive, non-specific, and slowly reactive to kidney function as compared to GFR ([47]). GFR can drop 50% before changes in SCr are detected ([48][–][50]). As such, acute injuries from vancomycin take a median of 6 days to be detectable with creatinine alone ([51]). Therefore, this study focused on the pre-clini ... || Originally derived from salmon fish sperm (salmine), protamine is a highly positively charged protein consisting of 32 amino acids. Currently, it is widely used as an effective agent to neutralize heparin using electrostatic bonds made between the cationic arginine groups of protamine and the anionic heparin in a 1:1 ratio ([6]). Specifically, protamine shares binding sites with heparin (current target for FDA-approved use) and megalin ([30], [31]). On this note, a clinical limitation for the use of protamine arises for patients who require heparin infusions, such as post-diabetic foot infecti ...

[1] = within group, day 2 vs 1 (baseline)
[2] = within group, day 3 vs 1 (baseline)
[3] = within group, day 4 vs 1 (baseline)

**Q.** Which “Competition of drug binding to megalin (in words)” value (megalin; binding of gentamicin, colistin, vancomycin and cisplatin) does the source give for CC1(C)C[C@@H]1C(=O)N/C(=C\CCCCSC[C@H](N)C(=O)O)C(=O)O [cilastatin] here?
**A.** Its value is “the binding of all the drugs listed above is competed by cilastatin”.

**Q.** With CN[C@H](CC(C)C)C(=O)N[C@H]1C(=O)N[C@@H](CC(N)=O)C(=O)N[C@H]2C(=O)N[C@H]3C(=O)N[C@H](C(=O)N[C@H](C(=O)O)c4cc(O)cc(O)c4-c4cc3ccc4O)[C@H](O)c3ccc(c(Cl)c3)Oc3cc2cc(c3O[C@@H]2O[C@H](CO)[C@@H](O)[C@H](O)[C@H]2O[C@H]2C[C@](C)(N)[C@H](O)[C@H](C)O2)Oc2ccc(cc2Cl)[C@H]1O [Vancomycin] as the compound, how does the “KIM-1 compared to protamine alone (in words)” value (Urinary KIM-1; day 2, 24 h after drug administration) read?
**A.** Its value is “significantly increased urinary KIM-1”.

**Q.** And the “KIM-1 change from baseline of day 1 (in words)” value (Urinary KIM-1; each animal group compared to itself, 4 days)?
**A.** Its value is “elevated KIM-1 on days 2 and 3”.

**Q.** What about the “Contrast KIM-1” value (Urinary KIM-1; vs protamine alone, day 1 (prior to any drug), n = 6-7) of the same compound?
**A.** Its value is 0.72 ng/24 h.

**Q.** And the “Contrast KIM-1” value (Urinary KIM-1; vs protamine alone, day 2 (24 h after drug administration))?
**A.** Its value is 24.92 ng/24 h.

**Q.** What about the “Contrast KIM-1” value (Urinary KIM-1; vs protamine alone, day 2 (24 h after drug administration), listed as vancomycin) of the same compound?
**A.** The value was 24.9 ng/24 h.

**Q.** And the “Contrast KIM-1” value (Urinary KIM-1; vs protamine alone, day 3)?
**A.** The value was 20.88 ng/24 h.

**Q.** What about the “Contrast KIM-1” value (Urinary KIM-1; vs protamine alone, day 4) of the same compound?
**A.** The value was 9.00 ng/24 h.

**Q.** And the “Contrast KIM-1” value (Urinary KIM-1; [1])?
**A.** Its value is 24.81 ng/24 h.

**Q.** And the “Contrast KIM-1” value (Urinary KIM-1; [2])?
**A.** Its value is 20.50 ng/24 h.

**Q.** What about the “Contrast KIM-1” value (Urinary KIM-1; [3]) of the same compound?
**A.** The value was 8.55 ng/24 h.

**Q.** What about the “95% confidence interval of contrast KIM-1” value (shortened to “95% confidence interval”) (Urinary KIM-1; vs protamine alone, day 1) of the same compound?
**A.** Its value is “(−22.3–23.8) ng/24 h”.

**Q.** What about the “95% confidence interval” value (Urinary KIM-1; vs protamine alone, day 2) of the same compound?
**A.** Its value is “(1.9–48.0) ng/24 h”.

**Q.** What about the “95% confidence interval” value (Urinary KIM-1; vs protamine alone, day 2, listed as vancomycin) of the same compound?
**A.** The value was 1.87–48.0 ng/24 h.

**Q.** And the “95% confidence interval” value (Urinary KIM-1; vs protamine alone, day 3)?
**A.** The value was “(−2.2–43.9) ng/24 h”.

**Q.** What about the “95% confidence interval” value (Urinary KIM-1; vs protamine alone, day 4) of the same compound?
**A.** The value was “(−14.0–32.0) ng/24 h”.

**Q.** What about the “95% confidence interval” value (Urinary KIM-1; [1]) of the same compound?
**A.** Its value is “(5.2–44.4) ng/24 h”.

**Q.** And the “95% confidence interval” value (Urinary KIM-1; [2])?
**A.** Its value is “(0.9–40.1) ng/24 h”.

**Q.** What about the “95% confidence interval” value (Urinary KIM-1; [3]) of the same compound?
**A.** Its value is “(−11–28.1) ng/24 h”.

**Q.** What about the “Direct binding to megalin (in words)” value (megalin) of the same compound?
**A.** Its value is “megalin is bound specifically”.

**Q.** And the “Time to VAN (creatinine defined), interquartile range” value (acute kidney injury; humans, after treatment initiation)?
**A.** The value was 6 to 13 days.

**Q.** And the “Median time for acute injury to be detectable with creatinine alone” value (acute kidney injury; humans)?
**A.** Its value is 6 days.

**Q.** And the “Risk of AKI compared to other antibiotics” value (acute kidney injury; systematic review and meta-analysis)?
**A.** The value was “up to 2.5 times greater”.

**Q.** With N.N.[Cl][Pt][Cl] [cisplatin] as the compound, how does the “Direct binding to megalin (in words)” value (megalin) read?
**A.** Its value is “megalin is bound specifically”.

**Q.** With CNC(C)C1CCC(N)C(OC2C(N)CC(N)C(OC3OCC(C)(O)C(NC)C3O)C2O)O1 (centres unmarked) [gentamicin] as the compound, how does the “Direct binding to megalin (in words)” value (megalin) read?
**A.** Its value is “megalin is bound specifically”.

**Q.** With colistin as the compound, how does the “Direct binding to megalin (in words)” value (megalin) read?
**A.** The value was “megalin is bound specifically”.
